Measurements taken from ChEMBL document CHEMBL4038286, “Synthesis of camphecene derivatives using click chemistry methodology and study of their antiviral activity” (Bioorg Med Chem Lett, 2017).

Tests used:
[1] = Selectivity index, ratio of CTD50 for MDCK cells to ED50 for Influenza A virus (A/Puerto Rico/8/34(H1N1)); format: toxicity; conditions: dog, read-out: Selectivity Index
[2] = Cytotoxicity against MDCK cells assessed as cell death by MTT assay; format: cell-based, Canis lupus familiaris; conditions: dog, read-out: CTD50

Row | SMILES | selectivity ratio [1] | CC50 [2]
1 | CCOP(=O)(CCCCn1cc(COCC/N=C2\C[C@H]3CC[C@]2(C)C3(C)C)nn1)OCC | > 2 | > 641 µM
2 | CNCc1cn(CC/N=C2\C[C@H]3CC[C@]2(C)C3(C)C)nn1 | < 2 | 195 µM
3 | CC1(C)[C@@H]2CC[C@@]1(C)/C(=N/CCOCc1cn(CCO)nn1)C2 | > 19 | > 938 µM
4 | CC(N)[C@@H]1C[C@H]2CC[C@]1(C)C2 (stereo not given in full) | 6 | 1110 µM
5 | CC(C)(O)Cc1cn(CC/N=C2\C[C@H]3CC[C@]2(C)C3(C)C)nn1 | > 31 | > 987 µM
6 | CC1(C)[C@@H]2CC[C@@]1(C)/C(=N/CCOCc1cn(-c3ccccc3)nn1)C2 | 2 | 138 µM
7 | CCOC(=O)C(C)(Cc1cn(CC/N=C2\C[C@H]3CC[C@]2(C)C3(C)C)nn1)P(=O)(OCC)OCC (stereo not given in full) | 2 | > 555 µM
8 | C#CCOCC/N=C1\C[C@H]2CC[C@]1(C)C2(C)C | 2 | 971 µM
9 | CC1(C)[C@@H]2CC[C@@]1(C)/C(=N/CCn1cc([Si](C)(C)C)nn1)C2 | < 1 | 32 µM
10 | CC1(C)[C@@H]2CC[C@@]1(C)/C(=N\CCOCc1cn(CC/N=C3\C[C@H]4CC[C@]3(C)C4(C)C)nn1)C2 | 1 | 117 µM
11 | CCCCc1cn(CC/N=C2\C[C@H]3CC[C@]2(C)C3(C)C)nn1 | 5 | 303 µM
12 | CC1(C)[C@@H]2CC[C@@]1(C)/C(=N/CCn1cc(CCO)nn1)C2 | > 19 | > 1030 µM
13 | CC(C)(C)OC(=O)Cn1cc(COCC/N=C2\C[C@H]3CC[C@]2(C)C3(C)C)nn1 | 8 | 204 µM
14 | COCCNCCc1cn(CC/N=C2\C[C@H]3CC[C@]2(C)C3(C)C)nn1 | 34 | 865 µM
15 | CC1(C)[C@@H]2CC[C@@]1(C)/C(=N/CCn1cc(CCN3CCOCC3)nn1)C2 | > 18 | > 836 µM
16 | CCOP(=O)(OCC)C(Cc1cn(CC/N=C2\C[C@H]3CC[C@]2(C)C3(C)C)nn1)P(=O)(OCC)OCC | 2 | 92 µM
17 | CC1(C)[C@@H]2CC[C@@]1(C)/C(=N/CCN=[N+]=[N-])C2 | > 3 | > 1360 µM
18 | CC1(C)[C@@H]2CC[C@@]1(C)/C(=N/CCn1cc(CO)nn1)C2 | 2 | > 1090 µM
19 | NC12CC3CC(CC(C3)C1)C2 [AMANTADINE] | 4 | 266 µM
20 | CC(N)C12CC3CC(CC(C3)C1)C2 (stereo not given) [RIMANTADINE] | 5 | 344 µM
